In paper PMC6332448, “SAR Studies Leading to the Identification of a Novel Series of Metallo-β-lactamase Inhibitors for the Treatment of Carbapenem-Resistant Enterobacteriaceae Infections That Display Efficacy in an Animal Infection Model” (ACS Infectious Diseases, 2018):
≈ marks a conversion by molar mass, not a printed value. Where “and” joins values, the source holds several entries; their conditions need not be identical. Identical values can stand only once. Like-named read-outs stand apart in the source and are kept apart here.

Key:
IMP-1 = IMP-1 (Serratia marcescens, UniProt P52699); assay: biochemical; type: biochemical
NDM-1 = NDM-1 (Klebsiella pneumoniae, UniProt C7C422); assay: biochemical; type: biochemical; settings: NDM-1 IC50, 300 μM imipenem, 10 mM HEPES pH 7.5, 25 °C; average of at least two independent assays
[1] = test system: NDM-1-producing strain Escherichia coli NTBC121; assay: Whole-cell meropenem potentiation, CLSI broth microdilution MIC; type: cell-based; settings: for MICMEM (meropenem MIC in presence of inhibitor) vs NTBC121: inhibitor present at 100 μM, E. coli NTBC121 (NDM-1), meropenem alone 32 μg/mL
Experimental: (§1) Minimal inhibitory concentrations (MIC) were determined using the Clinical Laboratory Standards Institute (CLSI) broth microdilution procedure. MBL-positive Enterobacteriaceae clinical isolates tested in the susceptibility study included NDM-1-producing strain E. coli NTBC121, VIM-1-producing strain K. pneumoniae NTBC055, and IMP-1-producing strain K. pneumoniae NTBC062. (Individual MICs for all strains tested are presented in Table 2 and Table 1 in the Supporting Information).

[2] = test system: VIM-1-producing strain Klebsiella pneumoniae NTBC055; assay: as above; type: cell-based; settings: inhibitor present at 100 μM; K. pneumoniae NTBC055 (VIM-1); meropenem alone 16 μg/mL
Experimental: as §1

VIM-2 = VIM-2 (Escherichia coli, UniProt Q5U7L7); assay: biochemical
VIM-1 = VIM-1 (Pseudomonas aeruginosa, UniProt A0A0F7KYQ8); assay: biochemical; type: biochemical
[3] = test system: IMP-1-producing strain K. pneumoniae NTBC062; assay: Whole-cell meropenem potentiation, CLSI broth microdilution MIC; type: cell-based, Klebsiella pneumoniae; settings: inhibitor present at 100 μM; K. pneumoniae NTBC062 (IMP-1); meropenem alone 4 μg/mL
Experimental: as §1

[4] = Kinetic solubility in PBS pH 7.4; type: physicochemical; settings: for solubility at 4 h: phosphate-buffered saline, pH 7.4, aqueous buffer, thermodynamic from solid
Experimental: This was determined by vigorous stirring (1200 rpm) of a 20 mg/mL mixture of the test compound in phosphate-buffered saline (PBS) at pH 7.4 for 4 h. The mixture was then centrifuged for 20 min at 10 000 rpm and the supernatant further processed by filtration. The concentration of the test compound in the filtrate was then determined by high-performance liquid chromatography (UV analysis) by comparison to a standard calibration curve of the test compound.

[5] = test system: NDM- and VIM-producing clinical strains; design: method as in PMID 29530861; settings: cited from earlier work
E. coli (IR3) = test system: E. coli (IR3); design: method as in PMID 29530861; settings: E. coli (IR3) murine thigh infection model, in combination with meropenem; cited from earlier work
[6] = acid form, read-out: solubility
[7] = sodium salt, read-out: solubility (Na salt)

Chain of IMP-1 (P52699 19-246, looked up, species assumed): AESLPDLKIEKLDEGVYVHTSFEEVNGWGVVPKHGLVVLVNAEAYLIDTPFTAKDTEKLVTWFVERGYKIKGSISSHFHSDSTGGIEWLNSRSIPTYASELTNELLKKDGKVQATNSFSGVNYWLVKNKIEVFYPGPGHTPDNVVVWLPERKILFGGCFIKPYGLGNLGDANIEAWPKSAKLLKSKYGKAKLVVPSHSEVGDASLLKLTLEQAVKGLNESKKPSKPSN
Chain of NDM-1 (C7C422 29-270, looked up, species assumed): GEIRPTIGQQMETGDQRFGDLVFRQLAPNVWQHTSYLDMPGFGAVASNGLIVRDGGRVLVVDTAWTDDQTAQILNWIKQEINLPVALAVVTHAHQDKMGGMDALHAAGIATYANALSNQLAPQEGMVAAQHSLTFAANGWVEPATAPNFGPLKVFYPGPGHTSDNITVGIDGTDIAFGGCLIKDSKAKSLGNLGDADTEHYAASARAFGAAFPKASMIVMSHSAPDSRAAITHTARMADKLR

Structure (SMILES) | IC50 (IMP-1) | IC50 (NDM-1) | improvement in potentiation over that expected from enzyme inhibition alone ([1]; 62 (thiazolyl) versus 61 (pyridyl), from PE values) | MICMEM (meropenem MIC in presence of inhibitor) vs NTBC121 [1] | potentiation efficiency (PE = MIC/IC50) ([1]; potentiated meropenem MIC vs E. coli NTBC121 divided by NDM-1 IC50) | MICMEM (meropenem MIC in presence of inhibitor) vs NTBC055 [2] | IC50 (VIM-2) | IC50 (VIM-1) | MICMEM (meropenem MIC in presence of inhibitor) vs NTBC062 [3] | solubility at 4 h [4, 6] | solubility at 4 h [4, 7] | effective inhibitor concentration for potentiation of meropenem ([5]; listed as ANT431) | potentiation of meropenem activity, in words ([5]; panel of 94 randomly selected NDM- and VIM-producing clinical strains) | efficacy with meropenem in thigh infection model, in words (E. coli (IR3)) | solubility (Na salt) ([4]; sodium salt)
O=C(O)c1ncsc1NS(=O)(=O)c1ccccc1 [Compound 62] | 58.2 µM | 4.5 µM | 10 fold | 0.125 µg/mL | 0.027 | 0.5 µg/mL | 6.2 µM | > 200 µM | 1 µg/mL | 1.1 mg/mL (≈ 3.87 mM) | 18.9 mg/mL |  |  |  | 
O=C(O)c1ncccc1NS(=O)(=O)Cc1ccccc1 [Compound 63] | > 100 µM | > 100 µM |  | 16 µg/mL |  | 1 µg/mL |  | > 100 µM | 1 µg/mL |  |  |  |  |  | 
O=C(O)c1ncsc1NS(=O)(=O)Cc1ccccc1 [Compound 64] | 1.83 µM | 2.53 µM |  | 0.5 µg/mL |  | 0.5 µg/mL |  | 62.7 µM | 0.5 µg/mL |  |  |  |  |  | 
N#Cc1cccc(CS(=O)(=O)Nc2cccnc2C(=O)O)c1 [Compound 65] | 150 µM | 116 µM |  | 32 µg/mL |  | 2 µg/mL |  | > 200 µM | 1 µg/mL |  |  |  |  |  | 
N#Cc1cccc(CS(=O)(=O)Nc2scnc2C(=O)O)c1 [Compound 66] | 2.51 µM | 8.82 µM |  | 2 µg/mL |  | 0.5 µg/mL |  | 54.2 µM | 1 µg/mL |  |  |  |  |  | 
O=C(O)c1ncsc1NS(=O)(=O)Cc1ccccc1Cl [Compound 68] | 1.75 µM | 2.32 µM |  | 0.5 µg/mL |  | 0.25 µg/mL |  | 6.72 µM | 0.5 µg/mL |  |  |  |  |  | 
O=C(O)c1ncsc1NS(=O)(=O)Cc1ccc(Cl)c(Cl)c1 [Compound 70] | 3.55 µM | 7.88 µM |  | 2 µg/mL |  | 1 µg/mL |  | 37.9 µM | 1 µg/mL |  |  |  |  |  | 
O=C(O)c1ncsc1NS(=O)(=O)Cc1ccc(Cl)cc1Cl [Compound 72] | 0.5 µM | 2.1 µM |  | 0.5 µg/mL |  | 0.5 µg/mL |  | 7 µM | 0.5 µg/mL |  |  |  |  |  | 
O=C(O)c1ncsc1NS(=O)(=O)Cc1cc(Cl)cc(Cl)c1 [Compound 74] | 3.2 µM | 6.9 µM |  | 2 µg/mL |  | 0.5 µg/mL |  | 28 µM | 1 µg/mL |  |  |  |  |  | 
O=C(O)c1ncsc1NS(=O)(=O)c1cccnc1 [Compound 76, 5-(Pyridine-3-sulfonamido)-1,3-thiazole-4-carboxylic acid] | 54 µM | 2.67 µM |  | 0.06 µg/mL |  |  |  |  |  | 2.4 mg/mL (≈ 8.41 mM) | ~20 mg/mL | 28 μM and 8 μg/mL | potentiate meropenem activity | restore the efficacy of meropenem | 16.9 mg/mL
